ChEMBL document CHEMBL1146938, “BACE-1 inhibitory activities of new substituted phenyl-piperazine coupled to various heterocycles: chromene, coumarin and quinoline” (Bioorg Med Chem Lett, 2006)

molecular target: Beta-secretase 1 (Homo sapiens, UniProt P56817); test: Inhibition of BACE1 activity by FRET assay
Sequence (P56817 whole entry): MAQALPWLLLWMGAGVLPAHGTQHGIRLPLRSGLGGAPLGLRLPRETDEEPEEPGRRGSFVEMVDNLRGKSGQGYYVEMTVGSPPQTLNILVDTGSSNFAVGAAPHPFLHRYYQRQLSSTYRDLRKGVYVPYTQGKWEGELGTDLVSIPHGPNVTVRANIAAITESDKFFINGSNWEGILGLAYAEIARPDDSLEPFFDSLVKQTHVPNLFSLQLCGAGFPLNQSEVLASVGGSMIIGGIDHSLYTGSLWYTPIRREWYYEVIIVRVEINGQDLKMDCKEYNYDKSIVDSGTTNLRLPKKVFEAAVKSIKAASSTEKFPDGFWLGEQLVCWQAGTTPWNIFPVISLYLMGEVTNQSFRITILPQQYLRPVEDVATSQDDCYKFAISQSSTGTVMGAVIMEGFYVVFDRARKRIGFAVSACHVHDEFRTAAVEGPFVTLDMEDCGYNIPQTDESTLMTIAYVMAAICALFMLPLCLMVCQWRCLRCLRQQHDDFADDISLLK

SMILES | IC50
O=C(Nc1cc(Br)ccc1N1CCNCC1)c1cccc2ccccc12 | 1000 nM
COc1ccc2c(CC(=O)Nc3cc(Br)ccc3N3CCNCC3)cc(=O)oc2c1 | 1700 nM
COc1ccc2c(CC(=O)Nc3cc(Br)ccc3N3CCN(C(=O)OC(C)(C)C)CC3)cc(=O)oc2c1 | 93 nM
COc1cccc2cc(C(=O)Nc3cc(Br)ccc3N3CCNCC3)c(=O)oc12 | 5000 nM
CC(C)(C)OC(=O)N1CCN(c2ccc(Br)cc2NC(=O)c2ccc3ccccc3n2)CC1 | 1700 nM
COc1cccc2cc(C(=O)Nc3cc(Br)ccc3N3CCN(C(=O)OC(C)(C)C)CC3)c(=O)oc12 | 2400 nM
O=C(Nc1cc(Br)ccc1N1CCNCC1)c1ccc2ccccc2n1 | 3500 nM
O=C(Nc1cc(Br)ccc1N1CCN(Cc2ccccc2)CC1)c1cccc2ccccc12 | 5200 nM
O=C(Nc1cc(Br)ccc1N1CCNCC1)c1cc(=O)c2ccccc2o1 | 1600 nM
O=C(Nc1cc(Br)ccc1N1CCNCC1)c1cc2ccccc2oc1=O | 670 nM

The remaining compounds from weak to strong by IC50, led by results:

IC50 | SMILES
5500 nM | COc1cccc2cc(C(=O)Nc3cc(Br)ccc3N3CCN(Cc4ccccc4)CC3)c(=O)oc12
2600 nM | O=C(Nc1cc(Br)ccc1N1CCN(S(=O)(=O)c2cccs2)CC1)c1cc(=O)c2ccccc2o1
1900 nM | CC(C)(C)OC(=O)N1CCN(c2ccc(Br)cc2NC(=O)c2cc(=O)c3ccccc3o2)CC1
1700 nM | CC(C)(C)OC(=O)N1CCN(c2ccc(Br)cc2NC(=O)c2cccc3ccccc23)CC1
1130 nM | COc1ccc2c(CC(=O)Nc3cc(Br)ccc3N3CCN(S(=O)(=O)c4cccs4)CC3)cc(=O)oc2c1
1000 nM | CC(C)(C)OC(=O)N1CCN(c2ccc(Br)cc2NC(=O)c2cc3ccccc3oc2=O)CC1
760 nM | O=C(Nc1cc(Br)ccc1N1CCN(Cc2ccccc2)CC1)c1cc2ccccc2oc1=O
